In ChEMBL document CHEMBL6153047, “Sulfilimines from a Medicinal Chemist's Perspective: Physicochemical and in Vitro Parameters Relevant for Drug Discovery” (J Med Chem, 2025):
≈ marks a conversion by molar mass, not a printed value.

Tests used:
[1] = Lipophilicity, logD of compound at pH 7.4 by UPLC-UV-MS analysis; format: physicochemical; conditions: buffer
[2] = Aqueous solubility of compound at pH 6.8 incubated for 24 hrs by LC-UV analysis; format: physicochemical; conditions: buffer, pH 6.8, 24 h
[3] = Permeability across apical to basal side in human Caco-2 cells measured upto 2 hrs; format: ADME, cell-based; conditions: caco-2, 2 h
[4] = Stability in human hepatocytes assessed as hepatic extraction ratio at 1 uM incubated for 6 hrs by HPLC-MS/MS analysis; format: ADME, cell-based, Hepatocyte; conditions: read-out: ERH
[5] = Efflux ratio in human Caco-2 cells measured upto 2 hrs; format: ADME, cell-based; conditions: caco-2, 2 h
[6] = Dissociation constant, pKa of compound by UV spectroscopy; format: physicochemical
[7] = Stability in human liver microsomes assessed as hepatic extraction ratio at 1 uM preincubated with compound followed by NADPH addition by LC-MS/MS analysis; format: ADME, Microsome; conditions: read-out: ERH
[8] = Stability in mouse liver microsomes assessed as hepatic extraction ratio at 1 uM preincubated with compound followed by NADPH addition by LC-MS/MS analysis; format: ADME, Microsome; conditions: read-out: ERH
[9] = Apparent permeability of compound incubated for 5 hrs by PAMPA assay; format: ADME
[10] = Protein binding in human plasma at 1 uM incubated for 5 hrs by rapid equilibrium dialysis; format: ADME, cell-free
[11] = Chemical stability assessed as compound decomposition at pH 1 and 40 degreeC measured after 3 days by HPLC-UV analysis; format: physicochemical; conditions: buffer, time 3 day, read-out: Drug degradation
[12] = Chemical stability assessed as compound decomposition at pH 4 and 40 degreeC measured after 3 days by HPLC-UV analysis; format: physicochemical; conditions: buffer, time 3 day, read-out: Drug degradation
[13] = Chemical stability assessed as compound decomposition at pH 7.4 and 40 degreeC measured after 3 days by HPLC-UV analysis; format: physicochemical; conditions: buffer, time 3 day, read-out: Drug degradation
[14] = Chemical stability assessed as compound decomposition at pH 10 and 40 degreeC measured after 3 days by HPLC-UV analysis; format: physicochemical; conditions: buffer, time 3 day, read-out: Drug degradation

Row | SMILES | logD [1] | solubility [2] | permeability [3] | hepatic extraction ratio at 6 h, 1 µM [4] | Ratio [5] | pKa [6] | hepatic extraction ratio at 1 µM [7] | hepatic extraction ratio at 1 µM [8] | Papp at 5 h [9] | PPB [10] | degraded at 72 h [11] | degraded at 72 h [12] | degraded at 72 h [13] | degraded at 72 h [14] | logD ([1]; read-out: logD)
1 | Cc1ccc(S(=O)(=O)c2ccccc2)cc1 | 3.3 |  | 39 10^-6 cm/s | 0.78 | 0.6 |  |  |  |  |  |  |  |  |  | 
2 | Cc1ccc(NC(=O)c2ccc(P(C)(C)=O)cc2)cc1Nc1nccc(-c2cccnc2)n1 | 1.4 | 58 µg/mL (≈ 127 µM) |  | < 0.04 | > 100 |  | < 0.23 | 0.35 | 0.043 ×10⁻⁶ cm/s | 83.8% |  |  |  |  | 
3 | Cc1ccc(S(=N)(=O)c2ccccc2)cc1 (stereo unspecified) |  | > 47 µg/mL | 93 10^-6 cm/s | 0.46 | 0.8 | 2.4 | 0.45 | 0.66 |  |  | < 0.5% | < 0.5% | < 0.5% | < 0.5% | 
4 | Cc1ccc(S(=O)(=NC(=O)C(C)(C)C)c2ccccc2)cc1 (stereo unspecified) | 4.2 | < 1 µg/mL | 51 10^-6 cm/s | 0.33 | 0.7 |  | 0.61 | > 0.88 |  |  | 16% | 0% | 0% | 0% | 
5 | COc1ccc(/S(=N/C(=O)C(C)(C)C)c2ccc(C)cc2)cc1 (stereo unspecified) | 4 | 59 µg/mL (≈ 179 µM) | 72 10^-6 cm/s | 0.46 | 0.7 |  | 0.44 | > 0.88 |  |  | < 0.5% | 2% | 2% | 1% | 
6 | CCOC(=O)/C(=S(/NC(=O)C(C)(C)C)c1ccccc1)P(=O)(OCC)OCC (stereo unspecified) | 3 | > 87 µg/mL | 25 10^-6 cm/s |  | 1.9 |  | > 0.23 | 0.41 |  |  | 57% | < 0.5% | < 0.5% | < 0.5% | 
7 | COc1ccc(/S(C)=N\C(=O)C(C)(C)C)cc1 (stereo unspecified) | 2 |  | 69 10^-6 cm/s | 0.58 | 0.8 |  | 0.27 | 0.65 |  |  |  |  |  |  | 
8 | CC(=O)/N=S(/c1ccccc1)c1ccc(C)cc1 (stereo unspecified) | 2 | > 52 µg/mL | 85 10^-6 cm/s | 0.26 | 0.8 |  | < 0.23 | 0.63 |  |  | 22% | 5% | 4% | 4% | 
9 | COC(=O)C(C(=O)OC)=S(NC(=O)C(C)(C)C)c1ccccc1 (stereo unspecified) | 2.5 | > 76 µg/mL | > 10 10^-6 cm/s |  | < 1 |  | > 0.89 | 0.63 |  |  | 58% | < 0.1% | 6% | 7% | 

Continued, values first:

Row | logD [1] | solubility [2] | permeability [3] | hepatic extraction ratio at 6 h, 1 µM [4] | Ratio [5] | pKa [6] | hepatic extraction ratio at 1 µM [7] | hepatic extraction ratio at 1 µM [8] | Papp at 5 h [9] | PPB [10] | degraded at 72 h [11] | degraded at 72 h [12] | degraded at 72 h [13] | degraded at 72 h [14] | logD ([1]; read-out: logD) | SMILES
10 | 1.9 | > 46 µg/mL | 130 10^-6 cm/s | 0.19 | 0.8 |  |  |  |  |  |  |  |  |  |  | C[S+]([O-])c1ccc(C(F)(F)F)cc1 (stereo unspecified)
11 | 2.3 | > 47 µg/mL |  |  |  |  |  |  |  |  |  |  |  |  |  | CS(=O)(=O)c1ccc(C(F)(F)F)cc1
12 | 1.5 | > 50 µg/mL |  | 0.08 |  | 2.5 | < 0.23 | < 0.23 |  |  |  |  |  |  |  | CS(=N)(=O)c1ccc(C(F)(F)F)cc1 (stereo unspecified)
13 | 1.7 | 38 µg/mL (≈ 138 µM) | 85 10^-6 cm/s | 0.1 | 0.7 |  | < 0.23 | < 0.23 |  |  | 20% | 8% | 7% | 8% |  | CC(=O)/N=S(\c1ccc(C(F)(F)F)cc1)C1CC1 (stereo unspecified)
14 | 3.5 | 41 µg/mL (≈ 133 µM) | 43 10^-6 cm/s | 0.73 | 0.7 | 7.2 | > 0.89 | > 0.88 |  |  | 80% | 2% | 9% | 7% |  | FC(F)(F)c1ccc(/S(=N\c2ccccc2)C2CC2)cc1 (stereo unspecified)
15 | 2.1 | 26 µg/mL (≈ 89.3 µM) | 88 10^-6 cm/s | 0.29 | 0.8 |  | < 0.23 | 0.38 |  |  | 27% | 10% | 10% | 11% |  | COC(=O)/N=S(\c1ccc(C(F)(F)F)cc1)C1CC1 (stereo unspecified)
16 | 3.5 | 51 µg/mL (≈ 161 µM) | 90 10^-6 cm/s | 0.16 | 0.7 |  | < 0.23 | 0.59 |  |  | 0.9% | 4% | 4% | 3% |  | CC(C)(C)C(=O)/N=S(\c1ccc(C(F)(F)F)cc1)C1CC1 (stereo unspecified)
17 |  | 27 µg/mL (≈ 151 µM) |  | 0.57 | 0.7 | 10.9 | < 0.23 | < 0.23 |  |  | 8% | 3% | 0.5% | 7% | 0.3 | Cc1ccc(S(=N)C2CC2)cc1 (stereo unspecified)
18 | 2.2 | 42 µg/mL (≈ 163 µM) | 100 10^-6 cm/s | 0.18 | 0.7 |  | < 0.23 | 0.43 |  |  | 72% | 9% | < 0.1% | < 0.1% |  | N#C/N=S(\c1ccc(C(F)(F)F)cc1)C1CC1 (stereo unspecified)
19 | 0.7 |  |  | 0.17 | 0.9 |  | < 0.23 | < 0.23 |  |  | 17% | 5% | 13% | 97% |  | CCS(=N)c1ccc(C(F)(F)F)cc1 (stereo unspecified)
20 |  | 49 µg/mL (≈ 181 µM) | 93 10^-6 cm/s | 0.08 | 0.9 |  | < 0.23 | 0.26 |  |  | 4% | 1% | 3% | 1% |  | N=S(c1ccc(C(F)(F)F)cc1)c1cccnc1 (stereo unspecified)
